Laboratory results: patent US4992466A, “Polycyclic ether antibiotic” (Pfizer Inc., priority 1986, dated 1991)
In brackets after ≈: the same amount, converted by molar mass. Like-named read-outs stand apart in the source and are kept apart here.

How the values were obtained:
rumen fluid = experiment: in vitro rumen technique, propionic acid production; assay type: cell-based, cow; settings: 20 micrograms per milliliter, 39° C., about 16 hours, read-out: increase in the production of propionic acid over control solution
Method: The value of animal feeds has generally been determined directly by feeding the animal. British Patent Specification No. 1,197,826 details an in vitro rumen technique whereby the changes occurring in feed brought about by microorganisms are measured more readily and with great accuracy in the evaluation of animal feeds. This technique involves the use of an apparatus in which the digestive processes of the animals are conducted and studied in vitro. The animal feeds, rumen inoculum and various growth promotants are introduced into and withdrawn from a laboratory unit under carefully controlled conditions and the changes taking place are studied critically and progressively during the consumption of the feed by the microorganisms. […] The change in propionic acid content is expressed as percent of the propionic acid content found in the control rumen fluid. Long term in vivo feeding studies are used to show a reliable correlation between propionic acid increase in the rumen fluid and improved animal performance. […]
After incubation, 5 ml. of the sample is mixed with 1 ml. of 25% metaphosphoric acid. […] Samples are then analyzed by gas-liquid chromatography by the method of D. W. Kellog, J. Dairy Science, 52, 1690, 1969. Peak heights for acetic, propionic and butyric acids are determined for samples from untreated and treated incubation flasks.

E. acervulina = experiment: efficacy against coccidial infection in chickens (lesion scores); settings: in diet of chickens at 15 to 120 ppm; five days
Treponema hyodysenteriae = experiment: in vitro antibacterial MIC (tube dilution, 24 hours); assay type: cell-based; settings: Brachyspira hyodysenteriae
Method: (§1) In Table I, below, the results of in vitro tests are summarized. For this test each organism is inoculated in a series of test tubes containing nutrient medium and varying concentrations of Antibiotic UK No.-61,689 to determine the minimal concentration of the compound in μg./ml. which inhibits the growth of the organism over a period of 24 hours (MIC).

Actinomyces pyogenes = experiment: as above; assay type: cell-based
Method: as §1

E. necatrix = experiment: efficacy against coccidial infection in chickens (lesion scores); settings: in diet of chickens at 15 to 120 ppm; six days
E. brunetti = experiment: as above; settings: in diet of chickens at 15 to 120 ppm; six days
E. maxima = experiment: as above; settings: in diet of chickens at 15 to 120 ppm; six days
Clostridium perfringens = experiment: microbe, parasite or virus in culture; assay type: cell-based; settings: 24 h
coccidial infections = experiment: activity against coccidial infections in poultry (lesion scores); settings: in diet of chickens
Eimeria tenella = experiment: efficacy against coccidial infection in chickens (lesion scores); settings: in diet of chickens at 15 to 120 ppm; six days

COC1CCC(OC2CC(C3OC(C)(O)C(C)CC3C)OC2C2(C)CCC(C3(C)CCC4(CC(O)C(C)C(C(C)C5OC(O)(CC(=O)O)C(C)C(O)C5OC)O4)O3)O2)OC1C (stereo not shown) [Antibiotic UK No.-61,689]
activation at 20 µg/mL (rumen fluid): ~80% | controlling infections due to E. acervulina (E. acervulina): effective in controlling infections | MIC (Treponema hyodysenteriae; strain 94A001): 6.25 µg/mL (≈ 7.16 µM) | MIC (Treponema hyodysenteriae; strain 94A002): 6.25 µg/mL (≈ 7.16 µM) | MIC (Treponema hyodysenteriae; strain 94A007): 3.12 µg/mL (≈ 3.57 µM) | MIC (Treponema hyodysenteriae; strain 94A008): 3.12 µg/mL (≈ 3.57 µM) | MIC (Actinomyces pyogenes; Trueperella pyogenes, strain 14D002, read-out: MIC): 0.39 µg/mL (≈ 0.447 µM) | MIC (Actinomyces pyogenes; strain 14D008): 0.39 µg/mL (≈ 0.447 µM) | MIC (Actinomyces pyogenes; strain 14D011): 0.39 µg/mL (≈ 0.447 µM) | controlling infections due to E. necatrix (E. necatrix): effective in controlling infections | controlling infections due to E. brunetti (E. brunetti): effective in controlling infections | controlling infections due to E. maxima (E. maxima): effective in controlling infections | MIC (Clostridium perfringens; strain 10A006): 25 µg/mL (≈ 28.6 µM) | MIC (Clostridium perfringens; strain 10A009): 3.12 µg/mL (≈ 3.57 µM) | activity against coccidial infections in poultry (coccidial infections): excellent activity | controlling infections due to Eimeria tenella (Eimeria tenella): effective in controlling infections
